Test results as given in US20250228239A1, “MOLECULES HAVING PESTICIDAL UTILITY, AND INTERMEDIATES, COMPOSITIONS, AND PROCESSES, RELATED THERETO” (priority 2024, published 2025).
Where two headings read alike, the source gives them in different places.

Key:
Assay type in all cases: in vivo
[1] = test system: Beet Armyworm (Spodoptera exigua, LAPHEG); assay: Bioassays on Beet Armyworm (BAW), 128-well diet tray assay; conditions: Spodoptera exigua
Outline: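 Eight diet wells per compound were treated at 50 μg/cm^2 (acetone-water 90:10), dried, then infested with 1–5 second-instar larvae each. After five to seven days at 25 °C under 14:10 photoperiod, mortality was scored and averaged across wells.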

[2] = test system: Cabbage Looper (Trichoplusia ni, TRIPNI); assay: Bioassays on Cabbage Looper (CL), 128-well diet tray assay; conditions: Trichoplusia ni
Outline: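 Diet tray, 2nd instar, 1–5 larvae/well; 50 μg/cm^2 compound surface-applied (acetone:water 90:10), dried; 8 wells/treatment; 25° C, 14:10 L:D, 5–7 d; % mortality, mean of 8 wells.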

[3] = test system: Yellow Fever Mosquito (Aedes aegypti, AEDSAE)
Outline: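 Mortality after 3 days at room temperature is the read-out, scored well by well and converted to a rating. Test molecules came from 4000 ppm stocks in DMSO, further diluted in 90:10 water/acetone, and were exposed to roughly 1-day-old larvae suspended in liver-powder water.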

[4] = test system: Green Peach Aphid (Myzus persicae, MYZUPE); assay: Bioassays on Green Peach Aphid (GPA), foliar spray on cabbage seedlings; conditions: 72 h
Outline: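 Percent control (Abbott-corrected versus solvent-sprayed plants) comes from live-aphid counts three days after treatment at about 25° C. Test solution at 200 ppm was sprayed to runoff onto both leaf surfaces of cabbage seedlings infested a day earlier with 20-50 aphids; four replicate pots.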

[5] = Beet Armyworm, rating class, read-out: BAW
[6] = Cabbage Looper, rating class, read-out: CL
[7] = Yellow Fever Mosquito, rating class
[8] = Green Peach Aphid, rating class, read-out: GPA
[9] = Table ABC: Biological Results, species BAW, read-out: BAW
[10] = Table ABC: Biological Results, species CL, read-out: CL
[11] = Table ABC: Biological Results, species YFM
[12] = Table ABC: Biological Results, species GPA, read-out: GPA

Row | SMILES | pest or weed control at 50 µg/cm2 [1, 5] [%] | pest or weed control at 50 µg/cm2 [2, 6] [%] | YFM [3, 7] | pest or weed control at 200 µg/mL [4, 8] [%] | pest or weed control at 50 µg/cm2 [1, 9] [%] | pest or weed control at 50 µg/cm2 [2, 10] [%] | YFM [3, 11] | pest or weed control at 200 µg/mL [4, 12] [%] | further results
1 | Cc1cc(NC(=O)[C@H]2[C@H](c3ccc(F)c(Cl)c3)C2(Cl)Cl)cc(C(=O)NCCCCl)c1Cl (relative stereo) [F2040, trans-2-Chloro-N-(3-chloropropyl)-5-(2,2-dichloro-3-(3-chloro-4-fluorophenyl)cyclopropane-1-carboxamido)-3-methylbenzamide] |  |  |  |  |  |  |  |  | pest or weed control at 50 µg/cm2 ([1]; Beet Armyworm, Table ABC / ABC-DP rating, read-out: BAW rating): 50 to 100%; pest or weed control at 50 µg/cm2 ([2]; Cabbage Looper, Table ABC / ABC-DP rating, read-out: CL rating): 50 to 100%; YFM rating ([3]; Yellow Fever Mosquito, Table ABC / ABC-DP rating): A (80–100); pest or weed control at 200 µg/mL ([4]; Green Peach Aphid, Table ABC / ABC-DP rating, read-out: GPA rating): 0 to 80%
2 | CCOC(C)C(=O)Nc1c(F)ccc(NC(=O)c2cc(NC(=O)[C@H]3[C@H](c4cccc(C(F)(F)F)c4)C3(Cl)Cl)ccc2Cl)c1F (stereo partly drawn) [F1737, 2-Chloro-5-((1R,3R)-2,2-dichloro-3-(3-(trifluoromethyl)phenyl)cyclopropane-1-carboxamido)-N-(3-(2-ethoxypropanamido)-2,4-difluorophenyl)benzamide] | 50 to 100 | 50 to 100 | A (80–100) | 0 to 80 |  |  |  |  | 
3 | O=C(CC(F)(F)F)Nc1c(F)ccc(NC(=O)c2cc(NC(=O)[C@H]3[C@H](c4ccc(F)c(Cl)c4)C3(Cl)Cl)ccc2Cl)c1F [F1701, 2-Chloro-5-((1R,3R)-2,2-dichloro-3-(3-chloro-4-fluorophenyl)cyclopropane-1-carboxamido)-N-(2,4-difluoro-3-(3,3,3-trifluoropropanamido)phenyl)benzamide] | 50 to 100 | 50 to 100 | B (More than 0 – Less than 80) | 80 to 100 |  |  |  |  | 
4 | O=C(Nc1ccc(F)cc1F)c1cc(NC(=O)[C@H]2[C@H](c3cc(Cl)c(Cl)c(Br)c3)C2(Cl)Cl)ccc1Cl (relative stereo) [F1007, trans-5-(3-(3-Bromo-4,5-dichlorophenyl)-2,2-dichlorocyclopropane-1-carboxamido)-2-chloro-N-(2,4-difluorophenyl)benzamide] |  |  |  |  | 50 to 100 | 50 to 100 | A (80–100) | 80 to 100 | 
5 | Nc1ccc(F)c(NC(=O)c2cc(NC(=O)[C@H]3[C@H](c4ccc(F)c(Cl)c4)C3(Cl)Cl)ccc2Cl)c1F [F1247, N-(3-Amino-2,6-difluorophenyl)-2-chloro-5-((1R,3R)-2,2-dichloro-3-(3-chloro-4-fluorophenyl)cyclopropane-1-carboxamido)benzamide] |  |  |  |  | 50 to 100 | 50 to 100 | A (80–100) | 80 to 100 | 
6 | O=C(CC(F)(F)F)Nc1c(F)ccc(NC(=O)c2cc(NC(=O)[C@H]3[C@H](c4cc(F)cc(C(F)(F)F)c4)C3(Cl)Cl)ccc2Cl)c1F [F1710, 2-Chloro-5-((1R,3R)-2,2-dichloro-3-(3-fluoro-5-(trifluoromethyl)phenyl)cyclopropane-1-carboxamido)-N-(2,4-difluoro-3-(3,3,3-trifluoropropanamido)phenyl)benzamide] | 50 to 100 | 50 to 100 | A (80–100) | 0 to 80 |  |  |  |  | 
7 | Cc1cc(NC(=O)[C@H]2[C@H](c3ccc(F)c(Cl)c3)C2(Cl)Cl)cc(C(=O)Nc2ccc(F)cc2F)c1Cl (relative stereo) [F1185, trans-2-Chloro-5-(2,2-dichloro-3-(3-chloro-4-fluorophenyl)cyclopropane-1-carboxamido)-N-(2,4-difluorophenyl)-3-methylbenzamide] |  |  |  |  | 50 to 100 | 50 to 100 | A (80–100) | 80 to 100 | 
8 | O=C(Nc1ccc(F)c(NC(=O)C(F)F)c1F)c1cc(NC(=O)[C@H]2[C@H](c3cc(F)cc(C(F)(F)F)c3)C2(Cl)Cl)ccc1Cl [F1711, 2-Chloro-5-((1R,3R)-2,2-dichloro-3-(3-fluoro-5-(trifluoromethyl)phenyl)cyclopropane-1-carboxamido)-N-(3-(2,2-difluoroacetamido)-2,4-difluorophenyl)benzamide] | 50 to 100 | 50 to 100 | A (80–100) | 80 to 100 |  |  |  |  | 
